Patent US10800741B2 (ANCUREALL PHARMACEUTICAL (SHANGHAI) CO., LTD., priority 2017, dated 2020)

Key:
[1] = tested on: H1581 (FGFR1 amp); assay: In vitro growth inhibition of H1581 tumor cells (MTT/CCK8); type: cell-based, Human; conditions: Homo sapiens, NCI-H1581; in vitro growth inhibition (or induction of apoptosis), cells cultured 3 to 5 days, MTT (CCK8); read-out: IC50 H1581 (FGFR1 amp)
[2] = tested on: Hep3B2 (FGFR3/4+++); assay: In vitro growth inhibition of Hep3B2 tumor cells (MTT/CCK8); type: cell-based, Human; conditions: Homo sapiens, Hep3B; in vitro growth inhibition (or induction of apoptosis), cells cultured 3 to 5 days, MTT (CCK8); read-out: IC50 Hep3B2 (FGFR3/4+++)
[3] = tested on: MOLM-13 (FLT3-ITD); assay: In vitro growth inhibition of MOLM-13 tumor cells (MTT/CCK8); type: cell-based, Human; conditions: Homo sapiens, MOLM-13; in vitro growth inhibition (or induction of apoptosis), cells cultured 3 to 5 days, MTT (CCK8); read-out: IC50 MOLM-13 (FLT3-ITD)
[4] = tested on: KCL-22 (BCR-ABL); assay: In vitro growth inhibition of KCL-22 tumor cells (MTT/CCK8); type: cell-based, Human; conditions: Homo sapiens, KCL-22; in vitro growth inhibition (or induction of apoptosis), cells cultured 3 to 5 days, MTT (CCK8); read-out: IC50 KCL-22 (BCR-ABL)
[5] = tested on: Kasumi-1 (KIT N822K); assay: In vitro growth inhibition of Kasumi-1 tumor cells (MTT/CCK8); type: cell-based, Human; conditions: Homo sapiens, Kasumi 1; in vitro growth inhibition (or induction of apoptosis), cells cultured 3 to 5 days, MTT (CCK8); read-out: IC50 Kasumi-1 (KIT N822K)
[6] = tested on: H1703 (PDGFRa amp); assay: In vitro growth inhibition of H1703 tumor cells (MTT/CCK8); type: cell-based, Human; conditions: Homo sapiens, NCI-H1703; in vitro growth inhibition (or induction of apoptosis), cells cultured 3 to 5 days, MTT (CCK8); read-out: IC50 H1703 (PDGFRa amp)
[7] = tested on: Cal-120; assay: In vitro growth inhibition of Cal-120 cells; type: cell-based; conditions: Homo sapiens, FGFR1 amp
Procedure: (§1) Adherent cells were digested with 0.25% trypsin-EDTA (Gibco). Suspension culture cells were collected by centrifugation (1700 rpm, 3 minutes). The supernatant was discarded and the cells were counted. According to each cell growth cycle, different concentrations of cells were prepared (5˜10×10^4 cells per ml), and inoculated to 96-well plates (Corning), with 100 μl per well, and incubated overnight at 37° C., 5% CO2. The next day, the test compound was added to the cultured cells (2 wells in parallel). The final concentration of the solvent was less than 1/1,000. The cells were further cultured for 3 to 5 days and assayed by MTT.
(§2) The MTT test reagent was a Dojindo CCK8 kit and the Microplate Reader was a THERMO […] FC instrument.
(§3) The adherent cells were taken out from the cell culture medium, and immediately added to a freshly prepared complete medium containing 10% CCK8 (5% FBS), 100 ul per hole. The suspended cells were directly added to a CCK8 reagent until reaching a final concentration of 10% and cultured for 1 to 4 hours. When a dark yellow color could be observed in the solvent control wells, the absorbance value at OD450 nm was measured and the cell growth rate was calculated according to the following formula: Cell Growth Rate (%)=100×(T−T0)/(C−T0)
(§4) T=optical density of drug-treated cell wells−optical density of blank control wells; T0=optical density of cell wells before drug treatment−optical density of blank control wells; C=optical density of solvent control wells−optical density of blank control wells. […] The experiments were repeated 1 to 3 times and a statistical analysis of data was conducted.
(§5) Mutations in the FGFR1-4 gene often occur in different types of cancer patients. In order to test the growth inhibition activity of the present compound against tumor cells expressing different FGFR variants, tumor cell lines expressing representative FGFR1-4 were selected for further determining the activity of compounds 25, 66, 38 and 95 of the present invention. BGJ398, a selective inhibitor of FGFR1-4, was used as the control compound. The specific test method is the same as test example 1.

[8] = tested on: SNU-16; assay: In vitro growth inhibition of SNU-16 cells; type: cell-based; conditions: Homo sapiens, FGFR2 amp
Procedure: as §1, §2, §3, §4, §5

[9] = tested on: AN3-CA; assay: In vitro growth inhibition of AN3-CA cells; type: cell-based; conditions: Homo sapiens, FGFR2 mutant
Procedure: as §1, §2, §3, §4, §5

[10] = tested on: Huh-7; assay: In vitro growth inhibition of Huh-7 cells; type: cell-based; conditions: Homo sapiens, FGFR3+++, FGFR4 +++
Procedure: as §1, §2, §3, §4, §5

[11] = tested on: KYSE70; assay: In vitro growth inhibition of PI3KCA amplified/mutant tumor cells KYSE70; type: cell-based; conditions: Homo sapiens, KYSE-70; KYSE70; PI3KCA amp; KIT G779C; read-out: IC50 growth inhibition
Procedure: as §1, with “Suspension” for “Adherent cells were digested with 0.25% trypsin-EDTA (Gibco). Suspension”
(§6) The adherent cells were taken out from the cell culture medium, and immediately added to a freshly prepared complete medium containing 10% CCK8 (5% FBS), 100 ul per hole. The suspended cells were directly added to a CCK8 reagent until reaching a final concentration of 10% and cultured for 1 to 4 hours.
as §4

[12] = tested on: NCI-H460; assay: In vitro growth inhibition of PI3KCA amplified/mutant tumor cells NCI-H460; type: cell-based; conditions: Homo sapiens; NCI-H460; PI3KCA E545K; KRAS Q61H; read-out: IC50 growth inhibition
Procedure: as §1, with “Suspension” for “Adherent cells were digested with 0.25% trypsin-EDTA (Gibco). Suspension”
as §6, §4

IC50 [1] [nM] | IC50 [2] [nM] | IC50 [3] [nM] | IC50 [4] [nM] | IC50 [5] [nM] | IC50 [6] [nM] | IC50 [8] [nM] | IC50 [10] [nM] | IC50 [11] [nM] | IC50 [12] [nM] | Compound | IC50 [7] [nM] | IC50 [9] [nM]
0.29 | 4.24 | 0.85 | 0.481 | 1.32 | 1.81 | 2.03 | 3.99 | 9.7 | 25.7 | COc1cc2nccc(Oc3ccc(NC(=O)Nc4cc(C(C)(C)C)nn4C)c(Cl)c3Cl)c2cc1C(N)=O [Compound 38, 4-{4-[3-(5-tert-butyl-2-methyl-2H-pyrazol-3-yl)-ureido]-2,3-dichloro-phenoxy}-7-methoxyquinolin-6-carboxamide] | 9.77 | 3.67
2.03 | 6.06 | 0.87 | 3.12 | 1.13 | 7.54 | 1.01 | 1.98 | 29.6 | 26.2 | COCCOc1cc2nccc(Oc3ccc(NC(=O)Nc4cc(C(C)(C)C)n[nH]4)c(Cl)c3)c2cc1NC(C)=O [Compound 66, N-[4-{4-[3-(5-tert-butyl-2H-pyrazol-3-yl)-ureido]-3-chloro-phenoxy}-7-(2-methoxy-ethoxy)-quinolin-6-yl]-acetamide] | 9.77 | 3.95
7.88 | 8.52 | 1.75 | 7.03 | 1.34 | 3.81 | 3.34 | 7.89 | 18.9 | 34.5 | CN1CCN(CCCOc2cc3nccc(Oc4ccc(NC(=O)Nc5cc(C(C)(C)C)n[nH]5)c(Cl)c4Cl)c3cc2C(N)=O)CC1 [Compound 95] | 9.77 | 3.89
